Earlier results on 1 compound are cited in patent publication US5216013A, “Aralkyl-N-terminal cycloalkoxy-C terminal amino hydroxy β-amino acid derivatives” (G. D. Searle & Co., priority 1992, dated 1993).

Square brackets hold non-standard residues; d marks the D form. Peptide text beside a SMILES is read from it. * marks the point of attachment. Sta = CC(C)C[C@H](N)[C@@H](O)CC(=O)O; Isovaleryl = CC(C)CC(=O)*

One data set deals with hog renin. The note with it: after the injection of hog renin into nephrectomized rats.

As for `CC(C)CC(=O)N[C@H](C(=O)N[C@H](C(=O)N[C@@H](CC(C)C)[C@@H](O)CC(=O)N[C@@H](C)C(=O)N[C@@H](CC(C)C)[C@@H](O)CC(=O)O)C(C)C)C(C)C` [pepstatin] (Isovaleryl-VV[Sta]A[Sta]-OH), the blood pressure result with hog renin is on record as “reduce blood pressure in vivo”. The “inhibition of pepsin (in words)” value in the data set with pepsin is listed as “inhibitor”. In the data set with cathepsin D, the “inhibition of cathepsin D (in words)” value was “inhibitor”. Besides, the “inhibition of renin (in words)” value in the data set on renin is recorded as “inhibitor”.
